This note sets out measurements from patent US8431131B2, “CD38 and obesity” (Mayo Foundation for Medical Education and Research, priority 2007, dated 2013).

Experiment [1] concerns Ca2+ release induced by oxytocin. The experiment can be described thus: Oxytocin-induced Ca2+ release in smooth muscle cells (control experiments). In kind it is cell-based, mice. Particulars: same conditions as p53 experiment.
The subject of another experiment is acetylated P53. The experiment in a line: Acetylated p53 immuno-staining in cultured smooth muscle cells (measure of endogenous SIRT activity). It counts as cell-based, mice. Particulars: 100 μM, four to six hours. On the procedure:
(§1) FIG. 8. The effect of resveratrol and sirtinol upon the cADPR system. In A, ADP ribosyl cyclase activity was measured in liver plasma membranes using NGD as a substrate. Mice were treated with 100 μM of a test drug: DTT (dithiothreitol), resverastrol (Resv), or sirtinol. The control mice received no addition. Similar results were obtained using purified Aplysia ADPribosyl cyclase. In B, cADPR-induced Ca^2+ was measured in sea urchin egg homogenates. Ca^2+ was induced by 100 nM of cADPR with no further additions, or with 1 minute pre-incubation of 100 μM of the testing drugs 8-Br-cADPR (8-Br), resveratrol (Resv), or sirtinol. In C, experiments were conducted in smooth muscle cells in culture as described in FIG. 1E. Four to six hours before fixation and staining with acetylated P53 antibody, cells were treated with 100 μM of the testing drugs. 3-Deaza-cADPR is a cell permeable cADPR agonist. […] All experiments were repeated three to four times. The asterisk denotes significant differences between control and treatment.
For experiments, cells were made quiescent by replacing the growth medium with SmBM without serum or growth factors. Cell medium was again replaced with SmBM containing testing agents solubilized in 0.1% DMSO or water added to the final concentrations.
Smooth muscle cells were obtained as described above. Cells were fixed in suspension in PBS plus 2% paraformaldehyde for 20 minutes at room temperature with constant agitation, and cells were washed three times for 10 minutes with TBS-Triton X-100 (0.1%). After that, cells were incubated in blocking buffer (TBS, 30 mM glycine, and 5% BSA) for 60 minutes and incubated with anti-acetylated p53 rabbit polyclonal antibody (1:1000) (Abcam, Inc.; Cambridge, Mass.) overnight at 4° C. with constant agitation. […]
Laser confocal images were obtained using the Olympus Fluoview laser scanning confocal microscopy, with objective Olympus UplanApo oil, 100×, 1.35 numerical aperture. Nuclei were excited at 543 nm, and their emission recorded at 570 nm.

For another experiment, the target named is T1, SIRT1 (Homo sapiens, UniProt Q96EB6).
T1 construct: purchased Biomol International, LP
T1 sequence (Q96EB6 1-747): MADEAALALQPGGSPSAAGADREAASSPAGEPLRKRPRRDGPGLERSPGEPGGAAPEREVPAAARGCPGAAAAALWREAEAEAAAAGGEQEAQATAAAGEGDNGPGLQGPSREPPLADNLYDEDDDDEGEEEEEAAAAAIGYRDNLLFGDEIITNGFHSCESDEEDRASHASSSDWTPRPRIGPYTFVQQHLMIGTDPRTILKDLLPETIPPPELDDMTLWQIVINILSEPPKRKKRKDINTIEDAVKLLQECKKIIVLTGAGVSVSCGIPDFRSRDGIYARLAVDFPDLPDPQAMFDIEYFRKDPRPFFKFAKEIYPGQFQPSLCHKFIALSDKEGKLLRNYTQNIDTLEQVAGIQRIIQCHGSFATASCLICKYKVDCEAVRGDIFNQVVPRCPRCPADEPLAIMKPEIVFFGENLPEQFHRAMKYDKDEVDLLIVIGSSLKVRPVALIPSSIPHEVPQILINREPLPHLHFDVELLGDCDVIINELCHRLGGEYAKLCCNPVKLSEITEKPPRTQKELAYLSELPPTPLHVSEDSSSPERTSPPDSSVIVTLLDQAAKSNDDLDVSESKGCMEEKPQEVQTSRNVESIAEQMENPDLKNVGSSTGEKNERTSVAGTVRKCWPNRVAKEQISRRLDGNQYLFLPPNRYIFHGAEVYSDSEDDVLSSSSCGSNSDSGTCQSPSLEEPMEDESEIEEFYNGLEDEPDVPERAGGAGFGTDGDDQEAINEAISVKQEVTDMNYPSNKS
The experiment can be described thus: Effect of CD38 metabolites on SIRT1 activity. In kind it is biochemical. On the procedure:
SIRT1 polypeptide activity was determined using the SIRT1 Fluorimetric Kit (Biomol International, LP; Plymouth Meeting, Pa.) according to the manufacturer's instructions. Briefly, nuclei prepared from wild-type or CD38 knockout mice (1 μg protein/well) were incubated in 40 mM Tris-HCl (pH 7.4) containing human recombinant SIRT1 (1 U/assay), 500 μM NAD+, and 100 μM Flour de Lys-SIRT1 substrate for 30 minutes at 37° C. Following incubation, the reaction was terminated by addition of a solution containing Flour de Lys Developer and 2 mM nicotinamide. Values were determined by reading fluorescence on a fluorimetric plate reader (Spectramax Gemini XPS; Molecular Devices; Sunnyvale, Calif.) with an excitation wavelength of 360 nm and emitted wavelength of 460 nm. Calculation of net fluorescence expressed as percent of control included the subtraction of a blank consisting of buffer containing no NAD+. Endogenous SIRT polypeptide activity was determined as described above with the exception that no recombinant SIRT enzyme was added to the reaction mixture and that the nuclear preparations were sonicated before the assay. The data were expressed as NAD stimulated deacetylation.
CD38 metabolites were tested for an effect on SIRT1 activity.

The target in a further experiment is T2, CD38 polypeptide (Homo sapiens, UniProt P28907).
T2 sequence (P28907 1-300): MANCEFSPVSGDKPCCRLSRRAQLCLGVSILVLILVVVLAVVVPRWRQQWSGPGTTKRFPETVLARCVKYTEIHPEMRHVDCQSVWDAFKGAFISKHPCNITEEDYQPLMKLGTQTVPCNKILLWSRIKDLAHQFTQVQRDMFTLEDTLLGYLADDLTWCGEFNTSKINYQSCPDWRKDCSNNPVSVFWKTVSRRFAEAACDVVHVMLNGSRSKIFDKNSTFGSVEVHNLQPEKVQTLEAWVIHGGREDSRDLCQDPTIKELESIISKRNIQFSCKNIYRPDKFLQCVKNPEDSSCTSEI
The experiment in a line: CD38 NADase activity assay with etheno-NAD as substrate. In kind it is biochemical. The note with it: 1 mM, 10 minutes incubation. The source says: Agents that can inhibit CD38 expression or activity in cells can be identified by screening candidate agents (e.g., from synthetic compound libraries and/or natural product libraries). Candidate agents can be obtained from any commercial source and can be chemically synthesized using methods that are known to those of skill in the art. Candidate agents can be screened and characterized using in vitro cell-based assays, cell free assays, and/or in vivo animal models. For example, a CD38 NADase assay can be used to identify CD38 antagonists. NADase activity can be determined using etheno-NAD. Enzyme preparations (e.g., purified CD38) can be incubated in a medium containing, for example, 0.2 mM […], 0.25 M sucrose, and 40 mM Tris-HCl (pH 7.2) at 37° C. NADase activity can be determined by measuring the change in fluorescence over time at, for example, 300 nm excitation and 410 nm emission. Candidate agents can be added to the CD38 assay, and a decrease of the NADase activity compared to control can be determined. […]
ADP-ribosyl cyclase polypeptide activity was measured using the NGD technique as described herein, and NADase polypeptide activity was determined using etheno-NAD as described elsewhere (Johnson et al., Diabetes, 55:2737-2746 (2006)). […] Activity was determined by measuring the change in fluorescence over time at 300 nm excitation and 410 nm emission. […]

The test system of the next experiment is ADP ribosyl cyclase. The experiment can be described thus: ADP ribosyl cyclase activity (cADPR synthesis) in liver plasma membranes using NGD as substrate. The note with it: 100 μM test drug. In kind it is biochemical, mice. On the procedure:
as §1
ADP-ribosyl cyclase polypeptide activity was measured using the NGD technique as described herein, and NADase polypeptide activity was determined using etheno-NAD as described elsewhere (Johnson et al., Diabetes, 55:2737-2746 (2006)). […] Activity was determined by measuring the change in fluorescence over time at 300 nm excitation and 410 nm emission.

Experiment [2] deals with cADPR-induced Ca2+ release. The experiment can be described thus: cADPR-induced Ca2+ release in sea urchin egg homogenates. Particulars: 100 nM cADPR, 1 minute pre-incubation with 100 μM drug. It counts as biochemical, Lytechinus pictus. On the procedure:
as §1, with “Similar results were obtained using purified Aplysia ADPribosyl cyclase.” left out, “treatment. cADPR-induced Ca^2+ release was determined in sea urchin egg homogenates using fluo-3 as a Ca^2+ indicator as described elsewhere (Chini, Braz. J. Med. Biol. Res., 35:543-547 (2002)). […] Fluo-3 fluorescence was monitored at 490 nm excitation and 535 nm emission in a 250-μL cuvette, held at 17° C. with a circulating water bath and continuously mixed with a magnetic stirring bar, in a Hitachi spectrofluorometer (F-2000).” for “treatment.”

Experiment [3] deals with high fat diet-induced obesity. The experiment can be described thus: High fat diet-induced obesity in mice. It counts as in vivo. Particulars: 30 mg/kg/day intraperitoneal, two weeks of HFD. As for the experimental part:
FIG. 9. […] Wild type mice were treated with resveratrol (a SIRT stimulator), and CD38 (−/−) mice were treated with Sirtinol (a SIRT antagonist) during 2 weeks of high fat diet. […] The number of animals in each group was between four and six.
Metabolic Studies and Diet At one year of age, CD38 (−/−) mice were placed on either a normal caloric diet (NCD; diet number 3807, KLIBA-NAFAG) or an HFD (AIN-93G modified to provide 60% of calories from fat, Researchdiets) ad libitum and monitored for six weeks. Body weight was recorded weekly, and food intake was measured for seven consecutive days. Oxygen consumption and energy expenditure (ER) measurements were performed in mice fed HFD for four weeks, and quantification of blood metabolites were performed. For the experiments using resveratrol and sirtinol, the HFD was supplemented with daily intraperitoneal injections of 30 mg/kg of drug (or vehicle) for two weeks. Cultured Smooth Muscle Cells from Wild-Type and CD38 Knockout Mice
Wild type mice were treated with 30 mg/kg/day of resveratrol, and CD38 (−/−) were treated with the same dose of sirtinol to determine the role of the SIRT enzymes upon high fat diet-induced obesity.

Consider 3-Deaza-cADPR, for which the “effect on oxytocin-induced Ca2+ release” value in experiment [1] is recorded as “increased oxytocin effect”.
For the compound `N=c1c2nc(Br)n3c2ncn1C1OC(COP(=O)(O)OP(=O)(O)OCC2OC3C(O)C2O)C(O)C1O` (centres unmarked) [8-Br-cADPR], the “levels of p53 acetylation in cells” value in the experiment on acetylated P53 (smooth muscle cells) is “neither the cell permeable cADPR antagonist (8-br-cADPR) nor the cADPR agonist (3-deaza-cADPR) had any effect”. For the same compound, the “effect on oxytocin-induced Ca2+ release” value in experiment [1] is listed as “blocked Ca^2+ release induced by oxytocin”.
As for `NC(=O)c1ccc[n+]([C@@H]2O[C@H](COP(=O)([O-])OP(=O)(O)OC[C@H]3O[C@@H](n4cnc5c(N)ncnc54)[C@H](O)[C@@H]3O)[C@@H](O)[C@H]2O)c1` [NAD], the “effect on SIRT1 activity” value on SIRT1 is given as “exhibited an effect”.
For the compound `NC(=O)c1cccnc1` [nicotinamide], the “effect on SIRT1 activity” value at SIRT1 is given as “exhibited an effect”. Moreover, the “CD38 NADase activity” value on CD38 polypeptide is given as “substantial inhibition”.
`Oc1ccc(C=Cc2cc(O)cc(O)c2)cc1` [resveratrol]: the “effect upon cADPR synthesis (ADP ribosyl cyclase activity)” value with ADP ribosyl cyclase was “Neither resveratrol (a SIRT activator) nor sirtinol (a SIRT inhibitor) exhibited any effect”. Also, the “effect upon cADPR-induced Ca2+ release” value in experiment [2] was “Neither resveratrol (a SIRT activator) nor sirtinol (a SIRT inhibitor) exhibited any effect”. For the same compound, the “acetylated p53 level” value with acetylated P53 (smooth muscle cells from wild type mice) is “decreased acetylated p53”. Besides, the “protection against high fat diet-induced obesity” value in experiment [3] (wild type mice) is “protected against high fat induced obesity”.
`CC(NC(=O)c1ccccc1/N=C/c1c(O)ccc2ccccc12)c1ccccc1` (centres unmarked) [sirtinol]: the “effect upon cADPR synthesis (ADP ribosyl cyclase activity)” value in the experiment with ADP ribosyl cyclase is “nor sirtinol (a SIRT inhibitor) exhibited any effect”. In addition, in the experiment with acetylated P53 (smooth muscle cells from CD38 (−/−) mice), the “acetylated p53 level” value is “increased acetylated p53”. Further, in experiment [3] (CD38 (−/−) mice), the “protective effect of CD38 knock out upon high fat diet-induced obesity” value was “abrogated” and the “weight gain compared with vehicle treated CD38 (−/−) mice” value is reported as “gained a statistically significant amount of weight”.
